Measurements published in patent EP4714952A1, “COMPOUND AND USE THEREOF” (Autobio Group Co., Ltd., priority 2023, dated 2025).
pIC50: −log10 of the molar value. Read-outs that look alike come from different tables or passages of the source. Each block holds one molecule with its values, some of them ahead of it.

Key:
CYP3A-M = CYP3A-M (Homo sapiens, UniProt P08684); assay: In vitro CYP inhibition in human liver microsomes, CYP3A-M
Method: (§3) 1.1 Working solutions (100×) of sample compounds and standard inhibitors were prepared.
(§4) 1.2 Microsomes were removed from a -80°C refrigerator, thawed on ice, labeled with the date, and stored in the refrigerator immediately after use.
(§5) 1.3 20 µL of substrate solution was added to the corresponding wells, while 20 µL of PB (phosphate buffer) was added to the blank wells.
(§6) 1.4 2 µL of sample compound solution and positive control working solution were added to the appropriate wells, while 2 µL of solvent was added to inhibitor-free wells and blank wells.
(§7) 1.5 HLM (human liver microsome) working solution was prepared.
(§8) 1.6 158 µL of HLM working solution was added to all wells of the plate.
(§9) 1.7 The plate was pre-incubated in a 37°C water bath for approximately 10 minutes.
(§10) 1.8 NADPH (nicotinamide adenosine denucleotide hydro-phosphoric acid, i.e. reduced form coenzyme II) cofactor solution was prepared.
(§11) 1.9 20 µL of NADPH cofactor solution was added to all incubation wells.
(§12) 1.10 The solution was mixed and the plate was placed in 37°C water bath to incubate CYP for 10 minutes.
(§13) Concentration-inhibition percentage curves of the control compound and test compounds were plotted using XL Fit or SigmaPlot, followed by nonlinear regression analysis.
(§14) IC50 values were determined using a 3 or 4 parameter logistic equation.

CYP2D6 = CYP2D6 (Homo sapiens, UniProt P10635); assay: In vitro CYP inhibition in human liver microsomes, CYP2D6
Chain of CYP2D6 (P10635 whole entry): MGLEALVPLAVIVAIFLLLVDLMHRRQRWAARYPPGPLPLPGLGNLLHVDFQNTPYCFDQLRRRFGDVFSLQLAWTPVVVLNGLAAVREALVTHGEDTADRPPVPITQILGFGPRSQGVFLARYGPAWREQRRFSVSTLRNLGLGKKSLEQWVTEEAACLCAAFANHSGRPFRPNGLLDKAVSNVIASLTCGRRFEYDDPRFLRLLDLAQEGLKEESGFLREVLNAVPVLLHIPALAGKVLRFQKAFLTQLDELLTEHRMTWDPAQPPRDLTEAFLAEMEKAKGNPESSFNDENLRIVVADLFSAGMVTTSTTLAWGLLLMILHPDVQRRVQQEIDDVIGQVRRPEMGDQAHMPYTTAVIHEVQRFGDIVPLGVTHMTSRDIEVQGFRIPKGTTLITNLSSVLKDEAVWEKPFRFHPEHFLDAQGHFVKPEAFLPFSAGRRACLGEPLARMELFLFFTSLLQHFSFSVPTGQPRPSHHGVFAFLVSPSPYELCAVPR
Method: as §3, §4, §5, §6, §7, §8, §9, §10, §11, §12
(§15) 1.11 At designated time points, the reaction was terminated by adding 400 µL of cold stopping solution.
(§16) 1.13 200 µL of the supernatant was transferred into 100 µL of HPLC-grade water and vortexed for 10 minutes.
(§17) 1.14 Samples were subjected to LC/MS/MS analysis.
as §13, §14

CYP1A2 = CYP1A2 (Homo sapiens, UniProt P05177); assay: In vitro CYP inhibition in human liver microsomes, CYP1A2
Chain of CYP1A2 (P05177 whole entry): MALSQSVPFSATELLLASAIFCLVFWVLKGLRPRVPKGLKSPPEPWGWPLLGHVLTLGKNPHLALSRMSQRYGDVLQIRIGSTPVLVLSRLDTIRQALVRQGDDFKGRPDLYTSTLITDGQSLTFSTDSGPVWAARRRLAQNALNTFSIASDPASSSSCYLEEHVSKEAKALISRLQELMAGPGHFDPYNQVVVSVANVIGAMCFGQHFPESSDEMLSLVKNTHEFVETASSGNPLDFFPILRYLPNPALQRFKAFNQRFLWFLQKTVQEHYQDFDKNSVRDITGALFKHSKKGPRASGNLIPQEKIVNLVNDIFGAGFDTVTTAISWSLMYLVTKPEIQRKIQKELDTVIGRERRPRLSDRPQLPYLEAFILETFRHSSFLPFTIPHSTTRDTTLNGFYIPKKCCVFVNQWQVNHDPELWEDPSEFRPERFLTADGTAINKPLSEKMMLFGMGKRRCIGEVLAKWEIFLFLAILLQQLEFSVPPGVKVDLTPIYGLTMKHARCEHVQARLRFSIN
Method: as §3, §4, §5, §6, §7, §8, §9, §10, §11, §12, §15, §16, §17, §13, §14

CYP2C19 = CYP2C19 (Homo sapiens, UniProt P33261); assay: In vitro CYP inhibition in human liver microsomes, CYP2C19
Chain of CYP2C19 (P33261 whole entry): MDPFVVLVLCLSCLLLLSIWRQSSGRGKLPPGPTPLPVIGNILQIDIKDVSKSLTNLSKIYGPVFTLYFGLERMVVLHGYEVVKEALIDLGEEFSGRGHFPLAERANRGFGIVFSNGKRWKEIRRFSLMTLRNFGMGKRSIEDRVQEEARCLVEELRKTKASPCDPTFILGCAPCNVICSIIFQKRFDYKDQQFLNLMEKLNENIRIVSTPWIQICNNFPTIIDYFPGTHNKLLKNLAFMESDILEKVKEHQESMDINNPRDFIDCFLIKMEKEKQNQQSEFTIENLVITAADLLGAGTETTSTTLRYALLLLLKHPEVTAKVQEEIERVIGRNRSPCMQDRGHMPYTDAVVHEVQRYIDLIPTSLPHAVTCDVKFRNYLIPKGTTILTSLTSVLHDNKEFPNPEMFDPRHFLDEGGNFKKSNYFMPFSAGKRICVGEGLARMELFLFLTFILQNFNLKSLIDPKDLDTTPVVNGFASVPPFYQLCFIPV
Method: as §3, §4, §5, §6, §7, §8, §9, §10, §11, §12, §15, §16, §17, §13, §14

CYP2C9 = CYP2C9 (Homo sapiens, UniProt P11712); assay: In vitro CYP inhibition in human liver microsomes, CYP2C9
Chain of CYP2C9 (P11712 whole entry): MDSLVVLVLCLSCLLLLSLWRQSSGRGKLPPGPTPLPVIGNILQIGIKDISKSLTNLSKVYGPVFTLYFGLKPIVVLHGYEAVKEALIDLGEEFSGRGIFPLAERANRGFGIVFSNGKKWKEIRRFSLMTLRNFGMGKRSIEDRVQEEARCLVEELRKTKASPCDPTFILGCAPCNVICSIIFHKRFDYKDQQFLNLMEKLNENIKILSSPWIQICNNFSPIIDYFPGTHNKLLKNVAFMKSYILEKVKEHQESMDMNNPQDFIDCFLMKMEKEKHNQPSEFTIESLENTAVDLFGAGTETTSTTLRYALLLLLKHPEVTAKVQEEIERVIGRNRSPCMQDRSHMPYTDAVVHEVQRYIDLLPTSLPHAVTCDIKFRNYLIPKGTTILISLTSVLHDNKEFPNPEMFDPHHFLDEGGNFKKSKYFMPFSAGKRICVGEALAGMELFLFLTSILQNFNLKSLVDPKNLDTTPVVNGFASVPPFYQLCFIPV
Method: as §3, §4, §5, §6, §7, §8, §9, §10, §11, §12, §15, §16, §17, §13, §14

PDE4B1 = molecular target: T1, PDE4B1 (Homo sapiens, UniProt Q07343); assay: In vitro inhibitory effect on PDE4B1 enzyme (AMP-Glo assay); type: biochemical
T1 construct: purchased Sigma
T1 sequence (Q07343 whole entry): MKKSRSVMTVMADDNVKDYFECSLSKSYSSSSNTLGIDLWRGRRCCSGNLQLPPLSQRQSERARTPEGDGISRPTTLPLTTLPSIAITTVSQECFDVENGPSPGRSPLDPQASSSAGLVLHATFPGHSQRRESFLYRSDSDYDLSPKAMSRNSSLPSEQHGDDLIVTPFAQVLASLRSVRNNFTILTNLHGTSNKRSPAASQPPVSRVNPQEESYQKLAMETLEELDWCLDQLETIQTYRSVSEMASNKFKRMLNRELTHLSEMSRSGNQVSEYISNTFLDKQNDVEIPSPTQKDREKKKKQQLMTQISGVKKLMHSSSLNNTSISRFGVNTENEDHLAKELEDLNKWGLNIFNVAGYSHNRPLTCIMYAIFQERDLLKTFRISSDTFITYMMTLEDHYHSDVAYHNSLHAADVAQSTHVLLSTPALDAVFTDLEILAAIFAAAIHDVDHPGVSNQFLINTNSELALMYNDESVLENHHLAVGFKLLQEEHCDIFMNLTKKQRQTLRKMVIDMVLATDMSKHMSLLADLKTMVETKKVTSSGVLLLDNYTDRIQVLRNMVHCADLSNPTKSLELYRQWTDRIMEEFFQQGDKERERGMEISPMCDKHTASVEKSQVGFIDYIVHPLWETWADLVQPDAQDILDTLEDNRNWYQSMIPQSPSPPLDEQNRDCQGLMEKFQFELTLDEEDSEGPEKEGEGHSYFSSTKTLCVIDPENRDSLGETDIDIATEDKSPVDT
Method: (§1) 1. Table 1 Main reagents and consumables for in vitro detection of inhibitory effect
(§2) 2. Preparation of experimental buffers Reaction buffer (5×): 50 mM Tris-HCl (buffer), 50 mM MgCl2, 0.5% BSA, 0.25% Tween-20, pH 7.4, stored at -20°C. 3. […] The starting concentration of the reference substance serial dilution was the Low control, and 1% DMSO-reaction buffer served as the High control. • 3) The enzyme was diluted to the desired concentration with 1× reaction buffer, and 4 µL of the diluted solution was transferred to the assay plate. After centrifugation, the 384-well low dead-volume microplate was sealed with sealing film and incubated in the incubator at 23°C for 15 minutes. • 4) The substrate cAMP was diluted to the desired concentration using 1× reaction buffer, and 5 µL of the diluted solution was transferred to the assay plate. After centrifugation, the plate was sealed again and incubated in the incubator at 23°C for 60 minutes (PDE3A) or 10 minutes (PDE4B1). • 5) Then, 5 µL of Reagent I from the AMP-Glo™ Assay Kit was added to the assay plate. After centrifugation and sealing, the plate was incubated in the incubator at 23°C for 60 minutes. • 6) The detection solution was prepared according to the AMP-Glo™ Assay Kit instructions, and 10 µL of the detection solution was added to the assay plate. After centrifugation and sealing, the plate was incubated in the incubator at 23°C for 60 minutes. • 7) The readout was recorded using a multimode microplate reader. 4. […] 5.

PDE3A = molecular target: T2, PDE3A (Homo sapiens, UniProt Q14432); assay: In vitro inhibitory effect on PDE3A enzyme (AMP-Glo assay); type: biochemical
T2 construct: purchased BPS
T2 sequence (Q14432 whole entry): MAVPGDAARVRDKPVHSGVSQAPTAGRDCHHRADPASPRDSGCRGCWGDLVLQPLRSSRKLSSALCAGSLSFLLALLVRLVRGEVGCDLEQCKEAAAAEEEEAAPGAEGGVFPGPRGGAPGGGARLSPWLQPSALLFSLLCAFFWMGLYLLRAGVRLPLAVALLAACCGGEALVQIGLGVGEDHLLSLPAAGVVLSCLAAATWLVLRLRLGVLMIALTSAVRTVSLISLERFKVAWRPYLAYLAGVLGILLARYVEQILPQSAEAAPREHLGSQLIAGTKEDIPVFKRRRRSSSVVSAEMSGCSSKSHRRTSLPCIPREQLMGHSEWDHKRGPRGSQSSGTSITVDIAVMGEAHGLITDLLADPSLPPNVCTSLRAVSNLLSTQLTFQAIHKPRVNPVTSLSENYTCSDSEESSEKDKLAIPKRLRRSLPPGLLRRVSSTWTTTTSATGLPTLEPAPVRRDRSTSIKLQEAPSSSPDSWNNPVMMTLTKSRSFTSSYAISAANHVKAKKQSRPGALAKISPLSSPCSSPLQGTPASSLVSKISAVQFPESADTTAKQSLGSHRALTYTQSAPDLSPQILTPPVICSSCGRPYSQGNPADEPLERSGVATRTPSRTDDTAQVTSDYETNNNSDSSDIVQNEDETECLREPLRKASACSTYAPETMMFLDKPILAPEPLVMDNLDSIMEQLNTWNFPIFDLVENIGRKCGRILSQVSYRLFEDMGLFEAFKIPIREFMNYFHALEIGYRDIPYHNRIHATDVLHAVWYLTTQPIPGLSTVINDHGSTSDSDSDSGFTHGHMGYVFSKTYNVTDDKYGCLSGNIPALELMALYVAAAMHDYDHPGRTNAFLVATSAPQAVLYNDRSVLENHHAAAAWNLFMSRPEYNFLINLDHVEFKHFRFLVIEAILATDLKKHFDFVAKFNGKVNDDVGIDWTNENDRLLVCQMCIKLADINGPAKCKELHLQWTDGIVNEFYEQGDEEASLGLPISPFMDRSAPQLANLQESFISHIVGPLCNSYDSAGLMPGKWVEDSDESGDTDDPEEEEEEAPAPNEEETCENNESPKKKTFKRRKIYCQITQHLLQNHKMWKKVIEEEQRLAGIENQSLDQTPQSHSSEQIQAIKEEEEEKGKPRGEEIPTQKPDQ
Method: as §1, §2

[1] = AMP-Glo Assay Kit, substrate cAMP, 23°C, 10 minutes, read-out: PDE4B1 (IC50)
[2] = AMP-Glo Assay Kit, substrate cAMP, 23°C, 60 minutes, read-out: PDE3A (IC50)

Chain of CYP3A-M (P08684 2-503): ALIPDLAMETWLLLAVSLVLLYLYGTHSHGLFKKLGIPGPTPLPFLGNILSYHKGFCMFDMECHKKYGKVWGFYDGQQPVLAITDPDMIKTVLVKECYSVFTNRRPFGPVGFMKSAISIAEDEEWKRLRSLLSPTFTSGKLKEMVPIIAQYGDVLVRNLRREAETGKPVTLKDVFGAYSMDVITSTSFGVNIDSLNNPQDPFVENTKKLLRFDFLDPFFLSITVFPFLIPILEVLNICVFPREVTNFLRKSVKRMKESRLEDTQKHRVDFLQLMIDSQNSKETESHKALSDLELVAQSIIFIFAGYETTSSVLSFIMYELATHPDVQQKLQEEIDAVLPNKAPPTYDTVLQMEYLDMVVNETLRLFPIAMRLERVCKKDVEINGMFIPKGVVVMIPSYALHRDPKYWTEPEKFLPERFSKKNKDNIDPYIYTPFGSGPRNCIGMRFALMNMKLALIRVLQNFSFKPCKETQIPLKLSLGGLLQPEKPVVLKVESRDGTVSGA

Compound: CCOc1cc2c(cc1OC)-c1cc(N(CCO)c3c(C)cc(C)cc3C)nc(=O)n1CC2 [Compound 75]
IC50 at 10 min (CYP3A-M; microsomes): 33.2 µM
pIC50 (CYP2D6): < 4.30
pIC50 (CYP1A2): < 4.30
pIC50 (CYP2C19): 4.51
pIC50 (CYP2C9): 5.08

Compound: CCOc1cc2c(cc1OC)-c1cc(N(CCC(=O)O)c3c(C)cc(C)cc3C)nc(=O)n1CC2 [Compound 61]
IC50 at 10 min (CYP3A-M; microsomes): > 50 µM
pIC50 (PDE4B1): 7.95
pIC50 (CYP2D6): < 4.30
pIC50 (CYP1A2): < 4.30
pIC50 (CYP2C19): < 4.30
pIC50 (CYP2C9): < 4.30
pIC50 (PDE3A): 11.21

pIC50 (PDE4B1; [1]): 6.38
pIC50 (PDE3A; [2]): 9.47
Compound: COc1cc2c(cc1OCC(F)(F)F)CCn1c-2cc(=Nc2c(C)cc(C)cc2C)n(CCNC(=O)c2c(O)nnn2C)c1=O [Compound 26]

Compound: CCOc1cc2c(cc1OC)-c1cc(=Nc3c(C)cc(C)cc3C)n(CCNC(=O)NOC)c(=O)n1CC2 [Compound 85]
pIC50 (PDE4B1): 7.39
pIC50 (PDE3A): 9.51

pIC50 (PDE4B1; [1]): 7.88
pIC50 (PDE3A; [2]): 10.24
Compound: CCOc1cc2c(cc1OC)-c1cc(N(CCN3CCN(C(C)=O)CC3)c3c(C)cc(C)cc3C)nc(=O)n1CC2 [Compound 71]

Compound: COc1cc2c(cc1OC)-c1cc(N(c3c(C)cc(C)cc3C)C3CN(C(=O)c4[nH]nnc4C)C3)nc(=O)n1CC2 [Compound 50]
pIC50 (PDE4B1): 7.17
pIC50 (PDE3A): 11.30

Compound: COc1cc2c(cc1OC)-c1cc(=Nc3c(C)cc(C)cc3C)n(CCNC(=O)N3CCn4c(nnc4C(F)(F)F)C3)c(=O)n1CC2 [Compound 33]
pIC50 (PDE4B1): 5.42
pIC50 (PDE3A): 8.32

pIC50 (PDE4B1; [1]): 6.67
pIC50 (PDE3A; [2]): 10.06
Compound: COc1cc2c(cc1OC)-c1cc(N(CCC(C)(C)O)c3c(C)cc(C)cc3C)nc(=O)n1CC2 [Compound 18]

Compound: COCCOc1cc2c(cc1OC)-c1cc(=Nc3c(C)cc(C)cc3C)n(CCNC(=O)c3c(O)nnn3C)c(=O)n1CC2 [Compound 28]
pIC50 (PDE4B1): 6.32
pIC50 (PDE3A): 9.34

Compound: COc1cc2c(cc1OC)-c1cc(=Nc3c(C)cc(C)cc3C)n(CCNC(=O)NCCN3CCOCC3)c(=O)n1CC2 [Compound 38]
pIC50 (PDE4B1): 5.72
pIC50 (PDE3A): 8.79

Compound: COc1cc2c(cc1OC)-c1cc(=Nc3c(C)cc(C)cc3C)n(CCNC(=O)c3cccn(C)c3=O)c(=O)n1CC2 [Compound 39]
pIC50 (PDE4B1): 7.73
pIC50 (PDE3A): 9.14

pIC50 (PDE4B1; [1]): 5.05
pIC50 (PDE3A; [2]): 9.09
Compound: COc1cc2c(cc1OC)-c1cc(N(c3c(C)cc(C)cc3C)C3CN(C(=O)c4nnc[nH]4)C3)nc(=O)n1CC2 [Compound 56]

Compound: COc1cc2c(cc1OC)-c1c/c(=N\c3c(C)cc(C)cc3C)n(CCNC(N)=O)c(=O)n1CC2 [Ensifentrine, reference compound]
IC50 at 10 min (CYP3A-M; human liver microsomes): 8.6 µM
pIC50 (PDE4B1; [1]): 6.99
pIC50 (CYP2D6): 4.38
pIC50 (CYP1A2): < 4.30
pIC50 (CYP2C19): 4.63
pIC50 (CYP2C9): 5.45
pIC50 (PDE3A; [2]): 9.77

Compound: COc1cc2c(cc1OC)-c1cc(N(c3c(C)cc(C)cc3C)C3CN(C(N)=O)C3)nc(=O)n1CC2 [Compound 32]
pIC50 (PDE4B1): 6.62
pIC50 (PDE3A): 9.68

Compound: COc1cc2c(cc1OC)C(C)Cn1c-2cc(=Nc2c(C)cc(C)cc2C)n(CCNC(N)=O)c1=O (stereo not shown) [Compound 9]
pIC50 (PDE4B1): 6.94
pIC50 (PDE3A): 8.25

Compound: CCOc1cc2c(cc1OC)-c1cc(N(CCCO)c3c(C)cc(C)cc3C)nc(=O)n1CC2 [Compound 60]
IC50 at 10 min (CYP3A-M; microsomes): > 50 µM
pIC50 (PDE4B1): 8.20
pIC50 (CYP2D6): < 4.30
pIC50 (CYP1A2): < 4.30
pIC50 (CYP2C19): 4.38
pIC50 (CYP2C9): 5.41
pIC50 (PDE3A): 11.48

Compound: CCOc1cc2c(cc1OC)-c1cc(N(CCNC(=O)NOC)c3c(C)cc(C)cc3C)nc(=O)n1CC2 [Compound 86]
IC50 at 10 min (CYP3A-M; human liver microsomes): 1.63 µM
pIC50 (PDE4B1; [1]): 8.10
pIC50 (CYP2D6): 4.53
pIC50 (CYP1A2): < 4.30
pIC50 (CYP2C19): 4.54
pIC50 (CYP2C9): 5.50
pIC50 (PDE3A; [2]): 10.47

Compound: CCOc1cc2c(cc1OC)-c1cc(N(CCNC(N)=O)c3c(C)cc(C)cc3C)nc(=O)n1CC2 [Compound 84]
IC50 at 10 min (CYP3A-M; human liver microsomes): > 50 µM
pIC50 (PDE4B1; [1]): 8.12
pIC50 (CYP2D6): < 4.30
pIC50 (CYP1A2): < 4.30
pIC50 (CYP2C19): < 4.30
pIC50 (CYP2C9): 5.34
pIC50 (PDE3A; [2]): 11.10

Compound: CCOc1cc2c(cc1OC)-c1cc(N(CCC(=O)NCCO)c3c(C)cc(C)cc3C)nc(=O)n1CC2 [Compound 82]
IC50 at 10 min (CYP3A-M; microsomes): 42.8 µM
pIC50 (PDE4B1): 7.85
pIC50 (CYP2D6): < 4.30
pIC50 (CYP1A2): < 4.30
pIC50 (CYP2C19): < 4.30
pIC50 (CYP2C9): 5.03
pIC50 (PDE3A): 10.06

pIC50 (PDE4B1; [1]): 6.01
pIC50 (PDE3A; [2]): 10.00
Compound: COc1cc2c(cc1OC)-c1cc(=Nc3c(C)cc(C)cc3C)n(CCC(O)CO)c(=O)n1CC2 (stereo not shown) [Compound 5]

Compound: CCOc1cc2c(cc1OC)-c1cc(N(c3c(C)cc(C)cc3C)C(CO)CO)nc(=O)n1CC2 [Compound 80]
IC50 at 10 min (CYP3A-M; microsomes): 43.5 µM
pIC50 (PDE4B1): 8.13
pIC50 (CYP2D6): < 4.30
pIC50 (CYP1A2): < 4.30
pIC50 (CYP2C19): 4.50
pIC50 (CYP2C9): 5.00
pIC50 (PDE3A): 11.55

pIC50 (PDE4B1; [1]): 8.59
pIC50 (PDE3A; [2]): 10.26
Compound: CCOc1cc2c(cc1OC)-c1cc(N(CCNC(=O)c3ccno3)c3c(C)cc(C)cc3C)nc(=O)n1CC2 [Compound 62]

Compound: CCOc1cc2c(cc1OC)-c1cc(=Nc3c(C)cc(C)cc3C)n(CCNC(=O)c3ccnc(Cl)c3)c(=O)n1CC2 [Compound 29]
pIC50 (PDE4B1): 6.37
pIC50 (PDE3A): 8.32

pIC50 (PDE4B1; [1]): 6.92
pIC50 (PDE3A; [2]): 10.59
Compound: COc1cc2c(cc1OC)-c1cc(N(CCC(O)CO)c3c(C)cc(C)cc3C)nc(=O)n1CC2 (stereo not shown) [Compound 6]

Compound: CCOc1cc2c(cc1OC)-c1cc(=Nc3c(C)cc(C)cc3C)n(CCCN)c(=O)n1CC2 [Compound 87]
pIC50 (PDE4B1): 6.44
pIC50 (PDE3A): 8.52
